Reference: patent US20060217445A1, “Natural astaxanthin extract reduces dna oxidation” (priority 2003, published 2006)
“Also recorded” adds a separate entry of the source.

Assays:
[1] = tested on: 8-Hydroxy-2′-deoxyguanosine (8-OHdG); experiment: Oxidative damage to DNA: plasma 8-OHdG by ELISA; assay type: in vivo, human; set-up: Average Levels of 8-OHdG (plasma): unit not given here; conditions: for Average Levels of 8-OHdG (plasma): oral
Description: (§1) Free-living healthy female Korean subjects (average age 21.5 years) were recruited at Inha University, Korea. A three-day dietary record was obtained prior to the study to provide background dietary information. Subjects had no history of diabetes, cancer or alcohol abuse, and were non-smokers. They were allowed to consume their normal diets but advised to restrain from eating astaxanthin-rich foods. Subjects were assigned to receive 0 (control), 2, or 8 mg astaxanthin (109 g astaxanthin/kg oleoresin concentrate from Haematococcus pluvialis, astaZanthin™, La Haye Laboratories Inc., Redmond, Wash.) (n=14 subjects/diet) for eight weeks in a double-blind placebo control study. The astaxanthin was administered in the form of one soft gel capsule taken every morning. Blood was again drawn on week 0, 4 and 8 to assess immune function and oxidative status.
Oxidative damage to DNA. 8-Hydroxy-2′-deoxyguanosine (8-OHdG) was measured in plasma by ELISA (BIOXYTECH™ 8-OHhdG-EIA Kit, OxisResearch, Portland, Oreg.; sensitivity=0.5 μg/L).

[2] = tested on: CD3 (total T), CD4 (Th), CD8 (Tc), NK, CD21 (B cells); experiment: Leukocyte subsets by flow cytometry; assay type: in vivo, human
Description: as §1
(§2) Leukocyte subset. Subpopulations of CD3 (total T), CD4 (Th), CD8 (Tc), NK (natural killer), and CD21 (B cells) were quantitated by flow cytometry as previously described (Chew et al. 2000). In addition, the distribution of the cell surface adhesion molecules ICAM-1 (CD54), LFA-1 (CD11a) and LFA-3 (CD58), also was measured by flow cytometry. The population of total T cells was higher (P<0.05) in astaxanthin-fed (both levels) subjects than unsupplemented controls on wk 4 and 8 (FIG. 6). The population of B cells also was higher (P<0.05) in subjects given 2 mg astaxanthin after 8 weeks (FIG. 7).

[3] = cited from earlier work
[4] = tested on: peripheral blood mononuclear cell (PBMC); experiment: Mitogen-induced lymphoproliferation, whole blood cultures; assay type: in vivo, human; conditions: especially 8 mg; significant (P<0.05) on wk 8
Description: as §1
Lymphoproliferation. The proliferation response of peripheral blood mononuclear cell (PBMC) to PHA (2 and 10 mg/L final concentration), concanavalin A (Con A; 2 and 10 mg/L), and pokeweed mitogen (PWM; 1 and 5 mg/L) was assessed using whole blood cultures as described (Chew et al., J Nutr. 130(8):1910-1913, 2000). Whole blood was cultured in order to mimic in vivo conditions. Results were calculated as stimulation index (cpm of mitogen-stimulated culture/cpm of unstimulated cultures). Astaxanthin supplementation, especially those given 8 mg astaxanthin, increased lymphocyte proliferation when stimulated by the T cell-dependent mitogens PHA (FIG. 2) and Con A (FIG. 3), and also B cell mitogen (PWM, FIG. 4). The increases were significant (P<0.05) on wk 8 for all mitogens.

[5] = tested on: UVA-induced oxidative stress; conditions: in vitro; cited from earlier work
splenocytes = conditions: mice; cited from earlier work
rats = rats fed 400 ppm for 41 days; cited from earlier work
human subjects = experiment: Delayed-type hypersensitivity (DTH) response to intracutaneous tuberculin; assay type: in vivo
Description: as §1
Delayed-type hypersensitivity. Delayed-type hypersensitivity (DTH) response to an intracutaneous injection of tuberculin (Mono-Vacc Test (O.T.), Pasteur Merieux Connaught, France) was assessed on week 8. The injection was administered by a physician and skin thickness and induration were measured at 0, 24, 48 and 72 hours after challenge. In general, DTH response was maximal at 48 to 72 h post-injection (FIG. 9). Subjects fed 2 mg astaxanthin had higher (P<0.08) DTH response than unsupplemented controls.

[6] = Plasma astaxanthin by reverse phase HPLC in supplemented human subjects; assay type: in vivo; set-up: Astaxanthin Levels (plasma): unit not given here; conditions: for Astaxanthin Levels (plasma): oral
Description: as §1
HPLC. Astaxanthin content in plasma was analyzed by reverse phase HPLC (Alliance 2690 Waters HPLC system fitted with a photodiode array detector, Waters, Milford, Mass.) as previously described (Park et al., J Nutr. 128(10):1650-1656, 1998). Trans-β-apo-8′carotenal (Sigma Chem. Co., St. Louis, Mo.) was used as the internal standard.

[7] = tested on: 8-epi-prostaglandin F2α (8-isoprostane); experiment: Lipid peroxidation: plasma 8-isoprostane by ELISA; assay type: in vivo, human; conditions: 2 or 8 mg daily, 8 weeks
Description: as §1
Lipid-peroxidation. Plasma concentrations of 8-epi-prostaglandin F2α (8-isoprostane) was measured by ELISA.

[8] = mice fed the same amount of these carotenoids; cited from earlier work
lipid peroxidation = conditions: cited from earlier work
[9] = tested on: cytotoxic T lymphocyte activity and IFN-γ production; conditions: astaxanthin-fed mice; cited from earlier work
[10] = tested on: ICAM-1 (CD54), LFA-1 (CD11a) and LFA-3 (CD58); experiment: Cell surface adhesion molecules by flow cytometry; assay type: in vivo, human; conditions: for frequency of cells expressing LFA-1 marker: week 8 (control 31.8%)
Description: as §1, §2

K562 target cells = experiment: Natural killer cell cytotoxic activity (PBMC effector, MTT); assay type: in vivo, human; conditions: 8 mg daily, wk 8, effector:target ratio 10:1, P<0.05
Description: as §1
Natural killer cell cytotoxic activity. Effector (PBMC) and target (K562) cells were cultured at effector:target ratios of 5:1 and 10:1 in Dulbecco's Modified Eagles Medium (Sigma, St. Louis, Mo.) containing 100 mL/L fetal bovine serum, 100 U/mL penicillin, and […] streptomycin sulfate. Killing was assessed using MTT. Percent of specific cytotoxicity calculated as follows: % Specific cytotoxicity=1−(ODeffector+target−ODeffector)/ODtarget×100. […]

[11] = tested on: splenocytes of tumor-bearing mice; conditions: dietary; cited from earlier work

For CC1=C(/C=C/C(C)=C/C=C/C(C)=C/C=C/C=C(C)/C=C/C=C(C)/C=C/C2=C(C)C(=O)C(O)CC2(C)C)C(C)(C)CC(O)C1=O (stereo not drawn) [astaxanthin, 3,3′-dihydroxy-beta,beta-carotene-4,4′-dione], the “Average Levels of 8-OHdG (plasma)” value ([1]; 2 mg astaxanthin daily, 0 week (baseline)) was 23.4, the “Average Levels of 8-OHdG (plasma)” value ([1]; 2 mg astaxanthin daily, 4 week) was 13.8 and the “Average Levels of 8-OHdG (plasma)” value ([1]; 2 mg astaxanthin daily, 8 week) was 14.4. The “Average Levels of 8-OHdG (plasma)” value ([1]; 8 mg astaxanthin daily, 0 week (baseline)) was 23.5, the “Average Levels of 8-OHdG (plasma)” value ([1]; 8 mg astaxanthin daily, 4 week) was 15.3 and the “Average Levels of 8-OHdG (plasma)” value ([1]; 8 mg astaxanthin daily, 8 week) was 13.2. The “further decrease of DNA damage with higher dose” value ([1]; 8 mg vs 2 mg daily) was “did not decrease further”, the “plasma 8-oxodG concentration vs unsupplemented subjects” value ([1]; 2 or 8 mg daily, as early as wk 4, P<0.01) was “dramatically lower” and the “reduction in 8-OHdG (blood DNA damage)” value ([1]; after 4 weeks of feeding) was > 35%. For the same molecule, the “population of B cells” value ([2]; 2 mg daily, after 8 weeks, P<0.05) was “higher”, the “population of B cells” value ([2]; 8 mg daily) was “did not elevate” and the “population of Th, Tc or NK cells or ratio of Th:Tc cells” value ([2]; 2 or 8 mg daily) was “did not significantly influence”. For the same molecule, the “population of total T cells vs unsupplemented controls” value ([2]; both levels (2 and 8 mg), wk 4 and 8, P<0.05) was “higher; also recorded: increased”, the solubility in oil ([3]; oil) was “extremely low” and the solubility in water ([3]; water) was “substantially insoluble”. For the same molecule, the “Con A-induced lymphocyte proliferation (stimulation index)” value [4] was “increased; also recorded: stimulated”, the “PHA-induced lymphocyte proliferation (stimulation index)” value [4] was “increased; also recorded: stimulated” and the “PWM-induced lymphocyte proliferation (stimulation index)” value [4] was “increased; also recorded: stimulated”. For the same molecule, the “protection against UVA-induced oxidative stress relative to lutein and β-carotene” value [5] was “approximately 100 fold”, the “ex vivo antibody response of splenocytes to T-cell antigens” value (splenocytes) was “increased” and the “effects on body/organ weight, enzyme activities, pregnancy, or litter size” value (rats) was “no harmful effects”. For the same molecule, the “DTH response vs unsupplemented controls” value (human subjects; 2 mg daily, week 8, P<0.08) was “higher”, the “DTH response vs unsupplemented controls” value (human subjects; 8 mg daily, week 8) was “did not show a similar heightened DTH response” and the “Astaxanthin Levels (plasma)” value ([6]; 2 mg astaxanthin daily, 4 week) was 0.0960. For the same molecule, the “Astaxanthin Levels (plasma)” value ([6]; 2 mg astaxanthin daily, 8 week) was 0.0921, the “Astaxanthin Levels (plasma)” value ([6]; 8 mg astaxanthin daily, 4 week) was 0.1309 and the “Astaxanthin Levels (plasma)” value ([6]; 8 mg astaxanthin daily, 8 week) was 0.1162. For the same molecule, the “plasma astaxanthin prior to feeding” value ([6]; week 0) was “undetectable”, the “plasma astaxanthin, change on feeding” value ([6]; weeks 4 and 8, dose-dependently, P<0.01) was “increased” and the “lipid peroxidation measured in the plasma (8-isoprostane)” value [7] was “did not significantly influence”. The “concentration in plasma vs β-carotene, lutein” value [8] was “much higher”, the “inhibiting lipid peroxidation vs β-carotene and vitamin E” value (lipid peroxidation) was “more effective” and the “cytotoxic T lymphocyte activity and IFN-γ production” value [9] was “increased”. For the same molecule, the “expression of LFA-1 adhesion molecules” value ([10]; 2 mg daily, P<0.05) was “increased”, the “frequency of cells expressing LFA-1 marker” value ([10]; 2 mg daily) was 42.1% and the “frequency of cells expressing LFA-1 marker” value ([10]; 8 mg daily) was 30.6%. The “ICAM-1 or LFA-3 expression” value ([10]; 2 or 8 mg daily) was “No similar dietary effect” and the “NK cell cytotoxic activity” value (K562 target cells) was “higher; also recorded: increased”.

In the case of CC1=C[C@H](O)CC(C)(C)[C@H]1/C=C/C(C)=C/C=C/C(C)=C/C=C/C=C(C)/C=C/C=C(C)/C=C/C1=C(C)C[C@@H](O)CC1(C)C [lutein], the “IFN-γ mRNA expression” value [11] is given as “increased” and the “expression of IL-10” value [11] is given as “decreased”.
